Values quoted from earlier work, collected in patent US20050008633A1, “Chemical and physical modulators of bioavailability of inhaled compositions” (Advanced Inhalation Research Inc., priority 2003, published 2005).

Tests used:
[1] = intratracheal instillation in animals, absorption over many hours
[2] = test system: rat alveolar epithelial cell monolayers; conditions: rat pneumocyte monolayers

immunoglobulin G
bioavailability [1]: lower than 5%

F-Alb: fluorescein isothiocyanate (FITC)-labeled bovine serum albumin
Jmax (i.e., maximum flux) ([2]; net absorption of intact F-Alb): ~0.15 fmol.cm^−2.s^−1
Kt (i.e., K(1)) of net absorption of intact F-Alb ([2]; simple saturable process): ~1.6 µM
